Source: patent publication US10758536B2, “Method for treating shingles with N-methanocarbathymidine (N-MCT)” (priority 2015, dated 2020)

Key:
VZV [1] = experiment: SCID-Hu mouse model of VZV replication, oral dose range; assay type: in vivo, varicella-zoster virus; settings: all doses, N-MCT 5-100 mg/kg/day BID; p<0.0001, ANOVA and Dunnett
Experimental: SCID-hu mice with human skin xenografts were infected intradermally with VZV and treated orally twice daily with vehicle, PFA (positive control), or N-MCT at 5, 10, 20, 25, 50, or 100 mg/kg/day. Virus spread was measured daily by in vivo bioluminescence imaging (IVIS). […] The results were analyzed for statistical significance by ANOVA and Dunnett's post hoc test of multiple comparisons (GraphPad Prism).

VZV [2] = experiment: Skin organ culture topical Assay 2: delayed treatment; assay type: cell-based, varicella-zoster virus
Experimental: (§1) Place 36 mL deionized sterile water into small beaker with stir bar. Slowly waft 900 mg of carbopol (980 NF, Lot # CCONLCC013, Lubrizol Corp) into water, avoiding clumps. Add equal volume N-MCT in 20% hydroxypropyl-β-cyclodextrin (Sigma) at 2× to reach the desired concentration. Add 2 drops NaOH (18% solution) to attain a pH near 5.0. Store at 4° C. The 0.5% cidofovir gel was made in a similar manner except that cidofovir was dissolved in water. The DMSO vehicle was prepared by adding a 2% DMSO solution in water to the carbopol suspension at a 1:1 ratio. Hydroxypropyl-β-cyclodextrin (HPBCD) was prepared by mixing 5.0 g with 20 mL sterile water. Stock solution of N-MCT was prepared by dissolving 90 mg N-MCT in 9 mL 20% HPBCD and sonicating for 1 min.
(§2) Human fetal skin was purchased from ABR and delivered by overnight courier on wet ice. The tissue was cleaned, disinfected in betadine and 70% ethanol, then cut into pieces approximately 1-cm^2. Each piece was inoculated with VZV-BAC-Luc strain that expresses firefly luciferase. Approximately 3 hours after inoculation, the pieces of skin were placed in NetWells above tissue culture medium and incubated overnight. The next day (Day 1) each piece of skin was soaked in D-luciferin for 45 min, and then scanned in the IVIS-50 instrument to measure Total Flux, which is a correlate of VZV pfu. The drug treatment began on Day 1 or later by spreading an aqueous gel (carbopol) containing N-MCT at concentrations of 0.05, 0.5, or 5% (see Assay 1 in Table 4 below). One group of skin was treated with cidofovir ([…] in carbopol gel) for a positive control. Each group contained 4-6 pieces of skin. The drug was applied daily until Day 5 (or other intervals), and then the skin pieces were scanned by IVIS to determine virus yield. […] The results were analyzed for statistical significance by ANOVA and Dunnett's post hoc test of multiple comparisons (GraphPad Prism).
This assay differs from Assay 1 in that the Vehicle was prepared with 10% HPBCD, which is the solvent for the N-MCT. Refer to Assay #2 in Table 4 above. Three groups were treated on Days 1-4 and scanned on Day 5, which is the typical assay protocol. Two groups were treated after a delay of several days, which more closely reflects a clinical scenario of zoster. All treated groups received the same preparation of 0.5% N-MCT in carbopol with 10% HPBCD. VZV yield was reduced in the Vehicle group during the treatment phase, and then rebounded. This was likely due to the effects of HPBCD, which has known antiviral properties. […] In contrast, VZV yield increased until Day 5 in the group that received no treatment until after this scan. The difference between this group and the Vehicle group was notable, since they were expected to be similar.

VZV [3] = experiment: Skin organ culture topical Assay 1: dose dependence (carbopol gel); assay type: cell-based, varicella-zoster virus
Experimental: as §1
A skin organ culture model was used to evaluate N-MCT as a topical treatment for VZV. Human skin explants were inoculated with VZV by scarification and treated daily from 1-4 days post infection with N-MCT (0.05, 0.5, or 5%) or cidofovir (0.5%, positive control) in a carbopol gel.
as §2

Structure (SMILES): O=C(O)P(=O)(O)O [PFA, phosphonoformic acid, reference compound]
- VZV yield and growth rates compared to vehicle (VZV [1]): significantly reduced

Structure (SMILES): Nc1ccn(C[C@@H](CO)OCP(=O)(O)O)c(=O)n1 [cidofovir, reference compound]
- VZV yield, treatment on Days 1-4 (VZV [2]; 0.5% in carbopol QD 1-4 dpi, during and after treatment): dramatically reduced
- VZV yield compared to vehicle (VZV [3]; N-MCT 0.05, 0.5, 5% or cidofovir in carbopol gel, daily, p<0.0004): significantly reduced
- VZV replication in skin explants, topical gel (VZV [3]; N-MCT 0.05-5%, cidofovir 0.5% in carbopol gel): prevented VZV replication
- reduction of virus yield compared to the vehicle group (VZV [3]; all concentrations, topical carbopol gel, p=0.0004): approximately 100 fold

Structure (SMILES): CC(O)COC[C@H]1O[C@@H]2O[C@H]3[C@H](O)[C@@H](O)[C@@H](O[C@H]4[C@H](O)[C@@H](O)[C@@H](O[C@H]5[C@H](O)[C@@H](O)[C@@H](O[C@H]6[C@H](O)[C@@H](O)[C@@H](O[C@H]7[C@H](O)[C@@H](O)[C@@H](O[C@H]8[C@H](O)[C@@H](O)[C@@H](O[C@H]1[C@H](O)[C@H]2O)O[C@@H]8COCC(C)O)O[C@@H]7COCC(C)O)O[C@@H]6COCC(C)O)O[C@@H]5COCC(C)O)O[C@@H]4COCC(C)O)O[C@@H]3COCC(C)O (stereo partly drawn) [hydroxypropyl-β-cyclodextrin]
- antiviral effect on VZV in skin organ culture (VZV [2]; 10% in carbopol, no drug): moderate antiviral effect
